Active and inactive are the calls of the source.
Columns and labels:
[1] = A cytotoxicity screen of small molecule inhibitors of the PhoP region in Salmonella typhi identified in the primary screen. [Related pubchem assays: 1850, 1864, 1985 ]; format: functional
[2] = target: Sphingosine 1-phosphate receptor 2 (Homo sapiens, UniProt O95136); test: Dose Response Cell Based Assay for Agonists of the S1P2 Receptor. [Related pubchem assays: 729, 736, 843 ]; format: functional
[3] = target: Glutathione-S-transferase (Schistosoma japonicum, UniProt Q26513); test: GST-antibody interaction or FRET quenching – biochemical, TR-FRET, artefact control for Vif-APOBEC3G degradation inhibitor project, dose response (AID 1117362); format: functional
[4] = target: Transthyretin (Homo sapiens, UniProt P02766); test: Luminescence-based cell-based high throughput dose response assay to identify activators of Transthyretin (TTR) transcription.; format: functional
[5] = target: E3 ubiquitin-protein ligase Mdm2 (Homo sapiens, UniProt Q00987); test: MDM2-luc reporter signal enhancers, multi-concentration potency testing, MDM2 ubiquitin-protein ligase inhibitor program, whole-cell format, luminescence detection, 384-well microplate (AID 1394); format: functional;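 also: MDM2 E3 inhibitors raise luminescence so EC50 is for signal enhancement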
[6] = target: T1, Heat shock factor protein 1 (Mus musculus, UniProt P38532); test: enhancement of HSF1-driven luciferase signal – cell-based, NIH3T3, luminescence, dose retest, confirmation (AID 435004); format: functional;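 also: stress induced by proteasome inhibitor MG132 added 30 min after compound; luciferase reporter driven by HSF1 response element in NIH3T3 cells; actives raise luminescence as potentiators of the MG132 stress response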
T1 sequence (P38532 whole entry): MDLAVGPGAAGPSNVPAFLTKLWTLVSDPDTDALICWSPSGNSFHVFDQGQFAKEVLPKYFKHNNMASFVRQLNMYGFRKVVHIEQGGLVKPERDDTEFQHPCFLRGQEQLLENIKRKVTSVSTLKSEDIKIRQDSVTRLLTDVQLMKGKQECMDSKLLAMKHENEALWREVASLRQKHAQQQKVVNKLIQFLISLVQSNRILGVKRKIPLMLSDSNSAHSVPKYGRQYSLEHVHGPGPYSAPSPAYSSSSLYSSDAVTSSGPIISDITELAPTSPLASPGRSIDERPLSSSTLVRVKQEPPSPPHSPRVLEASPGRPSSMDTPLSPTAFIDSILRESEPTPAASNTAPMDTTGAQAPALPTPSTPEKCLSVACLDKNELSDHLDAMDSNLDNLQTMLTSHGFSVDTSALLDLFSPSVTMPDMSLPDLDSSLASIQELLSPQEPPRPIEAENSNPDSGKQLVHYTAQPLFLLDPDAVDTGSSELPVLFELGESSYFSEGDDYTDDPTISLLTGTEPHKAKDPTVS

[7] = alpha-synuclein stem-loop luciferase translation blockers – H4 neuroglioma cells, luminescence, confirmation (AID 1988); format: functional, cell-based
[8] = ATP-based viability loss in HEK293T cells – cell-based, CellTiter-Glo luminescence, cherry-picked samples, set 4, cytotoxicity control, dose response (AID 743441); format: functional; settings: HEK293
[9] = target: SWI/SNF-related matrix-associated actin-dependent regulator of chromatin subfamily A member 2 (Homo sapiens, UniProt P51531); test: Luminescence-based cell-based high throughput dose response assay to identify activators of the function of SWI/SNF related, matrix associated, actin dependent regulator of chromatin, subfamily a, member 2 (SMARCA2, BRM).; format: functional
[10] = target: DNA repair and recombination protein RAD54-like (Homo sapiens, UniProt Q92698); test: RAD54 Holliday junction migration blockers – biochemical, fluorescence, cherry-picked samples, dose series, confirmation (AID 651657); format: functional
[11] = Counterscreen for activators of the function of SWI/SNF related, matrix associated, actin dependent regulator of chromatin, subfamily a, member 2 (SMARCA2, BRM): Luminescence-based cell-based high throughput dose response assay to identify non-selective compounds using the VP16 reporter assay.; format: functional
[12] = Luminescence Cell-Based Dose Response HTS to Identify Inhibitors of 5'UTR Stem-Loop Driven Prion Protein mRNA Translation in H4 Neuroglioblastoma Cells. [Related pubchem assays: 1827 (Project Summary), 1813 (Primary HTS)]; format: functional
[13] = A549 lung cell viability reduction – CellTiter-Glo luminescence, cherry-pick, cytotoxicity control, dose response (AID 743484); format: functional, cell-based
[14] = target: Mitogen-activated protein kinase 10 (Homo sapiens, UniProt P53779); test: Dose response biochemical screening assay for inhibitors of c-Jun N-Terminal Kinase 3 (JNK3). [Related pubchem assays: 746 ]
[15] = cells
[16] = target: Major prion protein (Homo sapiens, UniProt P04156); format: functional, cell-based
[17] = Luminescence-based cell-based high throughput dose response assay to identify activators of the DAF-12 from the parasite S. stercoralis (ssDAF-12).; format: functional
[18] = target: Oxysterols receptor LXR-beta (Homo sapiens, UniProt P55055); test: LXR agonists, Gal4 luciferase reporter, dose response, counter-screen for ssDAF-12 agonist project, cell-based, luminescence, HEK293, S. stercoralis campaign (AID 720737); format: functional; settings: read-out: IC50 (the source's name)
[19] = target: Kallikrein-7 (Homo sapiens, UniProt P49862); test: Fluorescence Intensity-based biochemical primary high throughput dose response assay to identify activators of kallikrein-7 (K7) zymogen.
[20] = viability loss in CEM21 cells – cell-based, plate reader, dry powder, cytotoxicity control, dose response (AID 687026); format: functional
[21] = inhibition of Env-driven cell fusion – HIV entry, plate reader, dry powder, dose response (AID 687023); format: functional, cell-based
[22] = growth inhibition of SK-MEL-5 melanoma cells – cell-based, CellTiter-Glo luminescence, dry powder, set 8, orthogonal assay for MITF inhibitor project, dose response (AID 651586); format: functional
[23] = MITF Orthogonal Assay: SK-MEL-5 CTG Assay Measured in Cell-Based System Using Plate Reader - 2084-02_Inhibitor_Dose_DryPowder_Activity_Set5.; format: functional
[24] = cytotoxicity in MITF-independent A375 cells – cell-based, CellTiter-Glo luminescence, dry powder, set 4, counter-screen for MITF inhibitor project, dose response (AID 624364); format: functional; settings: A-375;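 also: A375 melanoma cells are MITF independent so this is a counter screen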
[25] = cytotoxicity in melanoma parental cells – cell-based, CellTiter-Glo, dry powder, set 6, MITF inhibitor project, dose response (AID 624429); format: functional; settings: SK-MEL-5
[26] = MITF Orthogonal Assay: MALME3 CTG Assay Measured in Cell-Based System Using Plate Reader - 2084-04_Inhibitor_Dose_DryPowder_Activity_Set6.; format: functional; settings: MALME-3
[27] = MITF Measured in Cell-Based System Using Plate Reader - 2084-01_Inhibitor_Dose_DryPowder_Activity_Set6.; format: functional
[28] = MITF Measured in Cell-Based System Using Plate Reader - 2084-01_Inhibitor_Dose_DryPowder_Activity_Set7.; format: functional
[29] = growth inhibition of MALME3 cells – cell-based, CellTiter-Glo luminescence, dry powder, set 5, orthogonal assay for MITF inhibitor project, dose response (AID 651584); format: functional; settings: MALME-3
[30] = inhibitors of TRPM1-promoter reporter in SK-MEL-5 – cell-based, luciferase, dry powder, set 9, MITF inhibitor project, dose response (AID 651588); format: functional
[31] = target: G-protein coupled receptor 183 (Homo sapiens, UniProt P32249); test: SAR confirmation of small molecule antagonists of the EBI2 receptor via a luminescent beta-arrestin assa.; format: functional
[32] = growth inhibition of yeast DHODH-expressing 3D7 parasites – SYBR Green, dry powder samples, dose response (AID 1159570); format: functional, cell-based;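 also: parasite growth measured after 72 hours of compound exposure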
[33] = growth inhibition of PfATP4-mutant resistant parasites – NITD609-resistant line, SYBR Green, dry powder, dose response (AID 1159571); format: functional, cell-based;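 also: parasites synchronized at ring stage by sorbitol before testing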
[34] = Dd2 malaria parasite growth inhibition potency – SYBR Green, dry powder samples, dose response (AID 1159566); format: functional, cell-based;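 also: potency for growth inhibition with lower SYBR green DNA signal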
[35] = P. falciparum Dd2 growth inhibitors, dose response, SYBR Green, cherry-picked samples (AID 1159567); format: functional, cell-based
[36] = toxicity to human HepG2 hepatoma cells – cell-based, plate reader, dry powder samples, cytotoxicity control, dose response (AID 1159569); format: functional;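 also: inhibitor potency with signal falling toward the positive control level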
[37] = target: RNA-editing ligase 1, mitochondrial (Trypanosoma brucei brucei, UniProt P86926); test: inhibition of trypanosome RNA editing ligase – biochemical, fluorescence, Trypanosoma brucei, dose response (AID 1117295); format: functional
[38] = target: Phospholipase D1 (Homo sapiens, UniProt Q13393); test: PLD1 Cellular Concentration Response Study.; format: functional
[39] = target: Phospholipase D2 (Homo sapiens, UniProt O14939); test: PLD2 Cellular Concentration Response Study.; format: functional
[40] = target: Calcium-dependent protein kinase 1 (Plasmodium falciparum, UniProt P62344); test: PfCDPK1 kinase inhibitors, biochemical, TCAMS library (AID 1159585); format: functional
[41] = IC50 of insulin release inhibition, rat insulinoma INS-1E line, 5 mM glucose, cell-based (AID 1117331); format: functional
[42] = target: T2, Cytochrome P450 1A2 (Homo sapiens, UniProt P05177);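 also: PubChem cytochrome P450 panel assay, CYP1A2 panel member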
T2 sequence (P05177 whole entry): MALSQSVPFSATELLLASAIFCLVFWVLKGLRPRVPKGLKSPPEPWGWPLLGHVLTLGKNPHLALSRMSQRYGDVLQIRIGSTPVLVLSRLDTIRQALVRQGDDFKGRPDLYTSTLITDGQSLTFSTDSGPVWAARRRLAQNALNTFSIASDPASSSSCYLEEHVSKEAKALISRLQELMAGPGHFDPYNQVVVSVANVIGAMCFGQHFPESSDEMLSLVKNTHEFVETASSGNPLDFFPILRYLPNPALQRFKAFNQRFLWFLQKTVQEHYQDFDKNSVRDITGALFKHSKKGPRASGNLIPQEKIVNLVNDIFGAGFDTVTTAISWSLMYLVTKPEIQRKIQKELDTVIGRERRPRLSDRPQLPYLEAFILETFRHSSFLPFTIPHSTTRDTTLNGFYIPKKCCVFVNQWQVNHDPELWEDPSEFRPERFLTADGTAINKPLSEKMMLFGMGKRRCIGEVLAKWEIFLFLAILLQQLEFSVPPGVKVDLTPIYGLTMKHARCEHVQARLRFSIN

[43] = cells; format: functional, cell-based; settings: INS-1E

SMILES: Cc1cc(Br)ccc1OCCCCNCCO
- EC50 [1]: > 50 µM (active)
- EC50 [2]: > 50 µM (not active)

SMILES: O=C(O)C1Cc2ccccc2N2CCCC12 (stereo not drawn)
- IC50 [3]: 16.3 µM (active)

SMILES: O=C(O)c1ccc(CSc2nnc(Cc3ccccc3)o2)cc1
- EC50 [4]: > 167 µM (inactive)

SMILES: CN1C(C(=O)NCc2cccc(Br)c2)CC2Cn3c(nc4cc5ccccc5cc43)C21 (stereo not drawn)
- EC50 [5]: 11.1 µM (not active)

SMILES: CCN(CC)CCn1c2ccccc2c2nc3ccc([N+](=O)[O-])cc3cc21
- EC50 [6]: 15.8 µM (active)
- EC50 [7]: 8.22 µM (inconclusive)
- AC50 [8]: 5.85 µM (active)
- EC50 [9]: 7.55 µM (active)
- AC50 [10]: 1.56 µM (active)
- EC50 [11]: > 91.2 µM (inactive)
- EC50 [12]: > 120 µM (not active)
- AC50 [13]: 39.6 µM (active)

SMILES: O=C(O)CSc1ccc2ccccc2n1
- IC50 [14]: > 93.1 µM (not active)
- IC50 [15]: > 138 µM (inactive)
- IC50 [16]: 6.89 µM (active)

SMILES: c1ccc(SCc2nc3ccccc3s2)nc1
- IC50 [17]: > 67.5 µM (inactive)
- EC50 [18]: > 67.5 µM (inactive)

SMILES: O=C1NC(C2CC3C=CC2C3)Nc2ccccc21 (stereo not drawn)
- EC50 [19]: > 69.4 µM (inactive)

SMILES: CCOc1ccc(S(=O)(=O)NCc2ccncc2)cc1OCC
- AC50 [20]: > 70 µM (inactive)
- AC50 [21]: 0.562 µM (active)

SMILES: NC1=C(NS(=O)(=O)c2ccc(Br)cc2)C(=O)c2ccccc2C1=O
- AC50 [22]: > 70 µM (inactive)
- AC50 [23]: > 70 µM (inactive)
- AC50 [24]: > 70 µM (inactive)
- AC50 [25]: > 70 µM (inactive)
- AC50 [26]: > 70 µM (inactive)
- AC50 [27]: 41.5 µM (active)
- AC50 [28]: 53.6 µM (active)
- AC50 [29]: > 70 µM (inactive)
- AC50 [30]: > 70 µM (inactive)

SMILES: O=C(Cc1ccc(Br)cc1)N1CCN(C(=O)c2ccc(Cl)cc2)CC1
- IC50 [31]: > 1 µM (inactive)

SMILES: CC(C)CC#Cc1ccc([C@@H]2[C@H](CO)N3CCCCN(S(=O)(=O)Cc4ccccc4)C[C@@H]23)cc1
- AC50 [32]: 1.48 µM (active)
- AC50 [33]: 0.957 µM (active)
- AC50 [34]: 0.805 µM (active)
- AC50 [35]: 2.3 µM (active)
- AC50 [36]: 9.93 µM (active)

SMILES: C=CCNC1=NC(c2ccc(F)cc2)C(C(=O)OC)=C(C)N1Cc1ccccc1C(F)(F)F (stereo not drawn)
- IC50 [37]: > 96.6 µM (inactive)

SMILES: O=C(NCCN1CCC2(CC1)C(=O)NCN2Cc1cccc(Cl)c1)c1ccc2ccccc2c1
- IC50 [38]: 2.8 µM (active)
- IC50 [39]: 0.25 µM (active)

SMILES: CC(C)(CN)c1nc(-c2ccc(Cl)c(O)c2)c(-c2ccnc(N)n2)[nH]1
- IC50 [40]: 0.007 µM (active)

SMILES: CCN(CC)CCOCCOC(=O)C1(c2ccccc2)CCCC1 [CARBETAPENTANE]
- IC50 [41]: 7.69 µM (inactive)
- AC50 [42]: 20 µM (inconclusive)
- IC50 [43]: > 33.3 µM (inactive)

From ChEMBL document CHEMBL1201862, “PubChem BioAssay data set” (2004)
